For 14 compounds, IC50 results are on record in paper PMC12519464, “Dual-Site Inhibition of SARS-CoV‑2 RNA-Dependent RNA Polymerase by Small Molecules Able to Block Viral Replication Identified through a Computer-Aided Drug Discovery Approach” (ACS Infectious Diseases, 2025).

Read-outs that look alike come from different tables or passages of the source.

In the test the target is SARS-CoV-2 nsp12/7/8 (RTC) complex (Severe acute respiratory syndrome coronavirus 2, UniProt P0DTD1). Nature of the test: biochemical. The format is biochemical.
[1] abbreviates: read-out: IC50: compound concentration required to inhibit by 50% the SARS-CoV-2 RTC enzymatic activity.

`CNc1cccc(NC(=O)N[C@@H]2N=C(c3ccccn3)c3ccccc3N(CC(=O)C(C)(C)C)C2=O)c1` [Sograzepide, reference compound]: the IC50 (primer-extension PAGE assay, 150 nM RTC, 5% DMSO, 30 min preincubation at 37 °C, mean and SD of at least 3 independent experiments) is greater than 100 µM.
With Dryocrassin ABBA, under setting [1], the IC50 was determined as 14.5 ± 5.46 µM.
In the case of `CC(C)C1=C2[C@H]3CC[C@@H]4[C@@]5(C)CC[C@H](OC(=O)CC(C)(C)C(=O)O)C(C)(C)[C@@H]5CC[C@@]4(C)[C@]3(C)CC[C@@]2([C@@H](O)CN(CCN(C)C)Cc2ccc(Cl)cc2)CC1=O` [Gsk-2838232, reference compound], the IC50 under setting [1] was greater than 100 µM.
On the same count and under the same terms, the same measure for `C=CCOc1cccc(C(=O)[C@@H]2[C@@H]3CCCN3[C@]3(C(=O)Nc4c(C)cc(C)cc43)[C@@]23C(=O)Nc2ccccc23)c1` [(1'S,3R,3'S,7a'S)-5'',7''-dimethyl-1'-{[3-(prop-2-en-1-yloxy)phenyl]carbonyl}-5',6',7',7a'-tetrahydro-1'H-dispiro[indole-3,2'-pyrrolizine-3',3''-indole]-2,2''(1H,1''H)-dione]: greater than 100 µM.
The same measure, in the same setting: to `O=C(c1ccccc1Cl)c1cccnc1-c1nnn(Cc2cc(C(F)(F)F)cc(C(F)(F)F)c2)c1-c1ccncc1` [Tradipitant, reference compound] belongs greater than 100 µM; to `C[C@H]1O[C@@H](O[C@H]2CC[C@@]3(C)[C@@H](CC[C@]4(C)[C@@H]3C=CC3=C5CC(C)(C)CC[C@]5(CO)[C@H](O)C[C@]34C)[C@]2(C)CO)[C@H](O)[C@@H](O[C@@H]2O[C@H](CO)[C@@H](O)[C@H](O)[C@H]2O)[C@H]1O` [Saikosaponin B2], 54.6 ± 13.6 µM.
The compound `C[C@H]1[C@H](C)CC[C@]2(C)CC[C@]3(C)C(=CC[C@@H]4[C@@]5(C)CC[C@@H](O)[C@](C)(C(=O)O)[C@@H]5CC[C@]43C)[C@H]12` [Beta-Boswellic acid] showed an IC50 of 21.1 ± 4.45 µM.
For `C[C@@H]1CC[C@@]2(OC1)O[C@H]1C[C@H]3[C@@H]4CC=C5C[C@@H](O[C@@H]6O[C@H](CO)[C@@H](O)[C@H](O)[C@H]6O[C@@H]6O[C@@H](C)[C@H](O)[C@@H](O)[C@H]6O)CC[C@]5(C)[C@H]4CC[C@]3(C)[C@H]1[C@@H]2C` [Prosapogenin A], under setting [1], the IC50 was greater than 100 µM.
In the case of `Cc1ccc(NC(=O)[C@H]2CCCN(C(=O)c3c(C)cccc3F)[C@H]2c2ccc(NC3CCCC3)cc2)cc1C(F)(F)F` [Avacopan, reference compound], the IC50 under setting [1] is greater than 100 µM.
For the compound `COc1ccc2cc(-c3cc(-c4cc(Cl)cc(Cl)c4)nn3[C@@H](C)c3ccc(C(=O)NCCC(=O)O)cc3)ccc2c1` [3-[[4-[(1S)-1-[3-(3,5-dichlorophenyl)-5-(6-methoxynaphthalen-2-yl)pyrazol-1-yl]ethyl]benzoyl]amino]propanoic acid, reference compound], the IC50 under setting [1] amounted to 11.8 ± 6.43 µM.
Turning to `CC(C)=CCC[C@@](C)(O)[C@H]1CC[C@]2(C)[C@@H]1[C@H](O)C[C@@H]1[C@@]3(C)CC[C@H](O)C(C)(C)[C@@H]3CC[C@]12C` [(20R)-Protopanaxadiol], under setting [1], the IC50 is greater than 100 µM.
On to `C[C@H]1CC[C@]2(NC1)O[C@H]1C[C@H]3[C@@H]4CC[C@H]5C[C@@H](O)CC[C@]5(C)[C@H]4CC[C@]3(C)[C@H]1[C@@H]2C` [Tomatidine], for which the IC50 was found to be 51.4 ± 5.58 µM.
`C=C(C)[C@@H]1CC[C@]2(C=O)CC[C@]3(C)[C@H](CC[C@@H]4[C@@]5(C)CC[C@H](O)C(C)(C)[C@@H]5CC[C@]43C)[C@@H]12` [Betulinaldehyde] had an IC50 greater than 100 µM.
Same read-out and setting: the same measure for `CC(C)(O)/C=C/C(=O)[C@](C)(O)[C@H]1[C@H](O)C[C@@]2(C)[C@@H]3CC=C4[C@@H](C[C@H](O)C(=O)C4(C)C)[C@]3(C)C(=O)C[C@]12C` [Cucurbitacin D]: greater than 100 µM.
